The source of these data is US10106550B2, “Aza-phenalene-3-ketone derivative, preparation method thereof, and its application as PARP inhibitor” (SUZHOU KANGRUN PHARMACEUTICALS INC., priority 2015, dated 2018).

For data set [1], the target named is PARP1 (Homo sapiens (Human), UniProt P09874). Nature of the data set: PARP1 inhibitory activity, Universal PARP colorimetric assay kit (Trevigen). In kind it is biochemical. Conditions: for IC50: PARP1. The text has this: 1. Measuring PARP1 Inhibitory Activity
1.1 Materials and Methods
Universal PARP colorimetric assay kit (US Trevigen company)

Data set [2] can be described thus: Preliminary pharmacokinetics study in SD rats (single intravenous injection or oral gavage, plasma LC-MS/MS). In kind it is in vivo. Conditions: for AUC(0-inf) / AUC(0-t) / clearance / half-life / Vd / bioavailability / Cmax / Tmax: male, Sprague-Dawley (SD), rat; for Vd: read-out: VdSS; for bioavailability: single oral gavage 10 mg/kg vs intravenous 5 mg/kg, read-out: F (oral bioavailability). As for the experimental part: 2. Preliminary Pharmacokinetics Study of Compounds A1, A3, A6 in SD Rats
Healthy SPF SD male rats: 18, weighing 180-220 g, purchased from Shanghai Si Lai Ke Lab Animal Co. Ltd.; animal license no. SOCK (Shanghai) 2013-00016.
Rats were divided into intravenous injection group and oral gavage administration group, and fast for 12-14 hours before experiments. Test compounds' concentration in venous blood was measured. Venous blood was collected by orbital, EDTAK2 anticoagulation. The blood samples were placed on ice, and centrifuged within 30 minutes to separate plasma (centrifugal condition: 5000 rpm/min, 10 min, room temperature). The samples were stored at −80° C. prior to analysis.
Rats in intravenous injection group received a single injection 5 mL/kg of the test compounds. Rats in oral gavage administration group received a single dose 10 mL/kg of the test compounds. Venous blood sample collection times were: before the injection of the test compound (0 hr); after the injection of the test compound: 15 min, 30 min, 1 h, 2 h, 4 h, 6 h, 8 h and 24 h; before the oral gavage administration of the test compound (0 hr) and after the oral gavage administration of the test compounds, 30 min, 1 h, 2 h, 4 h, 6 h, 8 h and 24 h.
Liquid phase conditions: column: Agilent Eclipse plus-C18 (4.6×150 mm, 5.0 μm), mobile phase: 0.1% aqueous formic acid (A)/0.1% formic acid in acetonitrile (B); gradient elution, flow rate: 1.00 mL/min (split v:v=1:1); injection volume: 10 μL.
MS conditions: using electrospray ionization (ESI) and the positive ion mode under multiple reaction monitoring (MRM).
Compounds A1, A3, and A6 were weighed precisely and added to MDSO to prepare 1.00 mg/mL stock solutions. After the stock solutions were diluted to prepare 10000, 5000, 2000, 1000, 500, 100, 50.0, 20.0 ng/mL standard working solutions. Quality control work concentrations include low (30 ng/mL), medium (500 ng/mL), and high (8000 ng/mL).
10 μL plasma sample was added 100 μL verapamil internal standard solution. The mixture was vortexed for 60 seconds and then centrifuged (12000 rpm, 3 min). 70 μL supernatant was transferred to a 96-well plate with equal volume of water in each well. LC-MS/MS analysis was then conducted, and the injection volume was 10 μL.
Data were processed by using WinNonlin 6.3 pharmacokinetic calculation software and non-compartment pharmacokinetic model to obtain major pharmacokinetic parameters.

Setting [3] is: plasma, single intravenous injection, 5 mg/kg.
Where [4] appears, read: plasma, single oral gavage, 10 mg/kg.
[5] abbreviates: single intravenous injection, 5 mg/kg.
The mark [6] stands for this setting: in vivo, single intravenous injection, 5 mg/kg.
Setting [7] is: in vivo, single oral gavage, 10 mg/kg.

Values joined by “and” are separate entries in the source; they are usually repeats but may differ in a detail not shown here. Equal values may be shown once. Read-outs that look alike come from different tables or passages of the source.

Chain of PARP1 (P09874 whole entry): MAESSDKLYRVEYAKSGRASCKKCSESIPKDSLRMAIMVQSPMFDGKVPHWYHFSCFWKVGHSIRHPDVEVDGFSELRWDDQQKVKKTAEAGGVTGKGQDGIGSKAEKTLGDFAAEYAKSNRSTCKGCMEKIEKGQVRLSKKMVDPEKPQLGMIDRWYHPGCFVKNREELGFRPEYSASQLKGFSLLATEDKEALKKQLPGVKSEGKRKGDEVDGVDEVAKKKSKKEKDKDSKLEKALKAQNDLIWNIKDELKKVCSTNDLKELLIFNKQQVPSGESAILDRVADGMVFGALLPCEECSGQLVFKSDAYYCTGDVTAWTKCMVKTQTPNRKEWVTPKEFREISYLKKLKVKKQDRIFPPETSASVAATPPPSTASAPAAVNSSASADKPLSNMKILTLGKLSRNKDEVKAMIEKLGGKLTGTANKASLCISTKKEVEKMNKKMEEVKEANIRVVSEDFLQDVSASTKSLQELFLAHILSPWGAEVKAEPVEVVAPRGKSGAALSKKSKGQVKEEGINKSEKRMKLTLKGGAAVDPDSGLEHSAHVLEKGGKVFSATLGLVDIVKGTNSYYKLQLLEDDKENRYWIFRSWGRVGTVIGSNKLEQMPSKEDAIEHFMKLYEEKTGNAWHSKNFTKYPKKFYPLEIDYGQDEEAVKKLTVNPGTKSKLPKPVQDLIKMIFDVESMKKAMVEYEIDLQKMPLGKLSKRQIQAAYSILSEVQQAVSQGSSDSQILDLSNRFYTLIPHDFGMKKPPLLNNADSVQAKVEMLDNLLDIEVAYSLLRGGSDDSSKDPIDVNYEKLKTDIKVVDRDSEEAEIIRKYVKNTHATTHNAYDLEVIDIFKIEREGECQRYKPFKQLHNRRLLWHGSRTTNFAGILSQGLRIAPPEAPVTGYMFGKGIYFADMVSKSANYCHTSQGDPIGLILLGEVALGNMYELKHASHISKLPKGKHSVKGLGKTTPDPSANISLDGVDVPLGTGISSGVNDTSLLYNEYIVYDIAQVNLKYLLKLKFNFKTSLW

In turn, `C=C(C)CCN1CCN2C(=Nc3cccc4c(=O)[nH]nc2c34)C1` [Compound A6] had a half-maximal inhibitory concentration (IC50) in data set [1] of 0.0391 µM. Further, the “exposure levels (AUC0-4)” value in data set [2] was “higher”. Besides, in data set [2] (setting [3]), the AUC(0-inf) was 1040 ± 118 ng·h/mL, the exposure AUC(0-t) worked out at 1000 ± 92 ng·h/mL, the clearance was determined as 83.1 ± 13.3 mL/min/kg and the half-life is 11.5 ± 0.72 min. Further, in data set [2] (setting [3]), the Vd came out at 1.1 ± 0.15 L/kg. Moreover, the bioavailability in data set [2] (plasma) turned out to be 13 ± 2.1%. Moreover, in data set [2] (setting [4]), the total exposure AUC(0-inf) stood at 271 ± 43 ng·h/mL, the exposure AUC(0-t) came out at 264 ± 36 ng·h/mL, the highest level (Cmax) was 259 ± 28 ng/mL and the Tmax is 30 min. This compound had a half-life in data set [2] (setting [4]) of 30.8 ± 2.46 min. In data set [2] (setting [5]), this compound came in with an AUMC0-inf of 232 ± 17 h · h · ng · mL^−1, an AUMC0-t of 196 ± 27 h · h · ng · mL^−1, a Kel of 3.64 ± 0.22 h⁻¹ and an MRTIV of 13.3 ± 1.56 min. In data set [2] (single oral gavage, 10 mg/kg), this compound showed an AUMC0-inf of 284 ± 29 h · h · ng · mL^−1, an AUMC0-t of 269 ± 33 h · h · ng · mL^−1, a CL of 626 ± 93 mL·min/kg and a Kel of 1.77 ± 0.28 h⁻¹. In data set [2] (single oral gavage, 10 mg/kg), this compound returned an MRTPO of 70.2 ± 5.4 min and a Vz of 31.2 ± 4.8 L/kg.

As for `NC(=O)c1ccc(I)c([N+](=O)[O-])c1` [BSI-201, reference compound], the inhibition at 1 µM in data set [1] (PARP1, 1 μM, read-out: inhibition rate) amounted to 22.4%.

Consider `O=c1[nH]nc2c3c(cccc13)N=C1CN(Cc3ccccc3)CCN12` [Compound A5], for which half-maximal inhibition in data set [1] (IC50) was put at 0.0587 µM. This counts as double-digit nanomolar.

The compound `Cl.O=c1[nH]nc2c3c(cccc13)N=C1CNCCN12` [Compound A1] registered an IC50 in data set [1] of 0.0905 µM. For the same compound, the “exposure levels (AUC0-4)” value in data set [2] is recorded as “higher”. Also, in data set [2] (setting [6]), the AUC(0-inf) was 4280 ± 317 ng·h/mL, the AUC(0-t) is 4250 ± 304 ng·h/mL, the clearance stood at 19.5 ± 1.4 mL/min/kg and the half-life is 91.8 ± 9.6 min. Moreover, the Vd in data set [2] (setting [6]) worked out at 1.11 ± 0.11 L/kg. Also, the bioavailability in data set [2] (in vivo) is 67.5% and 67.1%. In data set [2] (setting [7]), this compound had an AUC(0-inf) of 5740 ± 841 ng·h/mL, an AUC(0-t) of 5710 ± 802 ng·h/mL, a Cmax of 3120 ± 173 ng/mL and a half-life of 80.4 ± 7.2 min. In addition, the Tmax in data set [2] (setting [4]) was 30 min. For the same compound, in data set [2] (setting [5]), the AUMC0-inf was found to be 4190 ± 575 h · h · ng · mL^−1, the AUMC0-t amounted to 3790 ± 547 h · h · ng · mL^−1, the Kel was 0.463 ± 0.063 h⁻¹ and the MRTIV came out at 57.2 ± 6.24 min. For the same compound, in data set [2] (single oral gavage, 10 mg/kg), the AUMC0-inf was found to be 9200 ± 336 h · h · ng · mL^−1, the AUMC0-t was found to be 8548 ± 240 h · h · ng · mL^−1, the CL came out at 29.7 ± 3.2 mL·min/kg and the Kel turned out to be 0.523 ± 0.046 h⁻¹. Also, in data set [2] (single oral gavage, 10 mg/kg), the MRTPO turned out to be 93 ± 12 min and the Vz was found to be 3.62 ± 0.37 L/kg.

Regarding `CCN1CCN2C(=Nc3cccc4c(=O)[nH]nc2c34)C1` [Compound A2], the half-maximal inhibitory concentration (IC50) in data set [1] worked out at 0.0657 µM.

Turning to `CC(C)N1CCN2C(=Nc3cccc4c(=O)[nH]nc2c34)C1` [Compound A4], the IC50 in data set [1] amounted to 0.111 µM.

In turn, `CN1CCN2C(=Nc3cccc4c(=O)[nH]nc2c34)C1` [Compound A3] displayed an IC50 in data set [1] of 0.13 µM. Also, the “exposure levels (AUC0-4)” value in data set [2] is listed as “higher”. In data set [2] (setting [3]), this compound showed an AUC(0-inf) of 2290 ± 321 ng·h/mL, an AUC(0-t) of 2290 ± 323 ng·h/mL, a clearance of 38.4 ± 2.5 mL/min/kg and a half-life of 43.3 ± 4.92 min. Further, the Vd in data set [2] (setting [3]) was found to be 1.15 ± 0.07 L/kg. Besides, the bioavailability in data set [2] (plasma) amounted to 50.5 ± 6.8%. In data set [2] (setting [4]), the AUC(0-inf) was 2310 ± 309 ng·h/mL, the AUC(0-t) was 2340 ± 334 ng·h/mL, the peak concentration (Cmax) was 1860 ± 251 ng/mL and the Tmax worked out at 15 min. Further, in data set [2] (setting [4]), the half-life is 50.9 ± 3.3 min. In data set [2] (setting [5]), this compound registered an AUMC0-inf of 1175 ± 105 h · h · ng · mL^−1, an AUMC0-t of 1145 ± 120 h · h · ng · mL^−1, a Kel of 1.02 ± 0.034 h⁻¹ and an MRTIV of 30.4 ± 2.4 min. For the same compound, in data set [2] (single oral gavage, 10 mg/kg), the AUMC0-inf is recorded as 2658 ± 308 h · h · ng · mL^−1, the AUMC0-t turned out to be 2566 ± 474 h · h · ng · mL^−1, the CL was 71.3 ± 7.6 mL·min/kg and the Kel was 0.818 ± 0.036 h⁻¹. In data set [2] (single oral gavage, 10 mg/kg), this compound gave an MRTPO of 64.8 ± 5.64 min and a Vz of 5.22 ± 0.81 L/kg.

For `NC(=O)c1cccc(N)c1` [Compound 3-AB, reference compound], in data set [1] (PARP1, 1 mM, read-out: inhibition rate), the inhibition at 1000 µM was 100%.
